# In PMC10213797 (Acta Pharmaceutica Sinica. B, 2023):
# Assays:
# hAChE = hAChE (Homo sapiens, UniProt P22303); test: hAChE inhibition, Ellman's method; format: biochemical
# murine AChE = conditions: cited from earlier work
# [1] = system: Electrophorus electricus AChE (eeAChE); conditions: cited from earlier work
# [2] = system: horse serum BChE (eqBChE); conditions: cited from earlier work
# hBChE = hBChE (Homo sapiens, UniProt P06276); test: hBChE inhibition, Ellman's method; format: biochemical; conditions: IC50 ± SEM hBChE, Table 1; n = 3, in triplicates
# [3] = DPPH radical-scavenging assay; conditions: means ± SEM (n = 2, in triplicates); for EC50: read-out: Radical-scavenging DPPH assay EC50
# Aβ1–42 = Aβ1–42 (Homo sapiens, UniProt P05067); test: Aβ1–42 aggregation inhibition, ThT fluorescence assay; format: biochemical; conditions: 10 μmol/L ligand and 1.5 μmol/L Aβ1–42; mean ± SD (n ≥ 3)
# BBB-PAMPA permeability = conditions: pH 7.4, 4 h, 25 °C, brain sink buffer; for Papp at 4 h, 100 μmol/L: PAMPA, pH 7.4, BBB–PAMPA permeability Papp (mean ± SD)
# hMAO-A = target: T1, hMAO-A (Homo sapiens, UniProt P21397); test: hMAO-A inhibition, horseradish-Amplex Red coupled assay; format: biochemical
# T1 sequence (P21397 1-527): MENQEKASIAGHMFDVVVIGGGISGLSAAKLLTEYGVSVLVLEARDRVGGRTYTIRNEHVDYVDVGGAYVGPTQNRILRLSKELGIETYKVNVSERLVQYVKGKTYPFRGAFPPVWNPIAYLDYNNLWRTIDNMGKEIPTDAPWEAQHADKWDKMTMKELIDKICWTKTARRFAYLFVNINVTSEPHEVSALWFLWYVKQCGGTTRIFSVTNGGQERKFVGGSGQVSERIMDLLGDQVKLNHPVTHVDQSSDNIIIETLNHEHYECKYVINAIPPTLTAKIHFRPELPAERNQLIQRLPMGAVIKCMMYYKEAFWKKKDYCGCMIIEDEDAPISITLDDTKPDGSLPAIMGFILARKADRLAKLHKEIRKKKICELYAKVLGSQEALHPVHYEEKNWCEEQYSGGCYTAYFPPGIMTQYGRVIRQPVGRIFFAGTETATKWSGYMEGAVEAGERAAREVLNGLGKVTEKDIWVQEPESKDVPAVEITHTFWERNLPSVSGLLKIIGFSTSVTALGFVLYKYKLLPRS
# hMAO-B = target: T2, hMAO-B (Homo sapiens, UniProt P27338); test: hMAO-B inhibition, horseradish-Amplex Red coupled assay; format: biochemical
# T2 sequence (P27338 1-520): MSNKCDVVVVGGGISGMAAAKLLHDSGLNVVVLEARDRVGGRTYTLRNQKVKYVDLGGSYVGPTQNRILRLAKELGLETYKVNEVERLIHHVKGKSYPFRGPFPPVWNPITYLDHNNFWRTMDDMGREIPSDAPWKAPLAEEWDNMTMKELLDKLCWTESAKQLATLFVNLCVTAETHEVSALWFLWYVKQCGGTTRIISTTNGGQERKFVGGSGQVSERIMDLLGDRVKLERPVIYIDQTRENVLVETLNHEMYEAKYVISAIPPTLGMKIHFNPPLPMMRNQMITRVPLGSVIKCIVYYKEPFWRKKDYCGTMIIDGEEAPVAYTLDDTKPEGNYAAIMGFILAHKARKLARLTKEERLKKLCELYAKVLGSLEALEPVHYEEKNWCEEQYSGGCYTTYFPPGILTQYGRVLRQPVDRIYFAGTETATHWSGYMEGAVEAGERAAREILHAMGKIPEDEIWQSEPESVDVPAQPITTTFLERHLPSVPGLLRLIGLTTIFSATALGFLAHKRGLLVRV
# mice = test: Rotarod test; format: in vivo; conditions: 2.5 mg/kg
# [4] = system: scopolamine-induced amnesic mice; test: Passive avoidance; format: in vivo; conditions: doses of one and 2 mg/kg; P < 0.001
# Chain of hBChE (P06276 29-602): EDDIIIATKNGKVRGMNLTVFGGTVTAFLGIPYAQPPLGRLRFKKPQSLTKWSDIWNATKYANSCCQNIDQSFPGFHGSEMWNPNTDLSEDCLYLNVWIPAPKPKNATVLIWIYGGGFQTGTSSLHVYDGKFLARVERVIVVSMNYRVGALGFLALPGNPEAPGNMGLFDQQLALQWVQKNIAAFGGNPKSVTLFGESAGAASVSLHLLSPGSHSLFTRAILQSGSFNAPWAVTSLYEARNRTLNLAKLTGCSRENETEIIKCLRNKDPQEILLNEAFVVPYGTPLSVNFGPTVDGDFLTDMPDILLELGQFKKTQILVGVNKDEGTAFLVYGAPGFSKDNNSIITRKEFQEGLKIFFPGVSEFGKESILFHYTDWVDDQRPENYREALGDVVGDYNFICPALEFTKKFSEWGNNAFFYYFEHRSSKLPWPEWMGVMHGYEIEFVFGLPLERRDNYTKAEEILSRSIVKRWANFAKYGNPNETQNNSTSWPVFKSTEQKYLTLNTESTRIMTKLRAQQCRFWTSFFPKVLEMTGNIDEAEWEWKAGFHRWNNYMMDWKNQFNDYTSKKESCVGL
# Chain of hAChE (P22303 32-614): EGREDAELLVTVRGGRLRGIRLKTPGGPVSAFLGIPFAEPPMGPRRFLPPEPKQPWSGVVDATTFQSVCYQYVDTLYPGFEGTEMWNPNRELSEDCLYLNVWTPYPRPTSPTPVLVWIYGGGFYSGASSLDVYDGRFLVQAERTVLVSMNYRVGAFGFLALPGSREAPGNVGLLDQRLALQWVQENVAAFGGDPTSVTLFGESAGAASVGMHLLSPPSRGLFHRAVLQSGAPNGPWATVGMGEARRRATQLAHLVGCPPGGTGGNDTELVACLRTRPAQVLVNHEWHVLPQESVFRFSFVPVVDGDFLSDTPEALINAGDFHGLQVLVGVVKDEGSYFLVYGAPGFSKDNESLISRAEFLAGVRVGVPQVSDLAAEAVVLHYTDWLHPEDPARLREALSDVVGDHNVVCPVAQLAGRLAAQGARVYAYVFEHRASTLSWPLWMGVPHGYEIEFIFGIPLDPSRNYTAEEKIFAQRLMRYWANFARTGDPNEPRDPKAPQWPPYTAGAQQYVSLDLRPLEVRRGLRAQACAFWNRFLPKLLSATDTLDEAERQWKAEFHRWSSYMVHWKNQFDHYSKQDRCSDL
# Chain of Aβ1–42 (P05067 672-713): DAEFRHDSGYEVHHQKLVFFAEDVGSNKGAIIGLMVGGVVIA
smiles,measurement,setting,value
"CC(C)(C)/[N+]([O-])=C/c1ccccc1 [PBN, α-phenyl-tert-butylnitrone]",hAChE inhibition (in words),hAChE,no inhibition
same,murine AChE Ki′,murine AChE,2990 µM
same,Ki,murine AChE; read-out: murine AChE Ki,580 µM
same,eeAChE inhibition (in words),[1],no inhibition
same,IC50,[2]; read-out: eqBChE IC50,478 ± 38 µM
"[O-]/[N+](=C\c1cc2cccc(O)c2nc1Cl)Cc1ccccc1 [QN 12, (Z)-N-Benzyl-1-(2-chloro-8-hydroxyquinolin-3-yl)methanimine oxide]",IC50,hBChE,10.7 ± 0.7 µM
"CC(C)(C)/[N+]([O-])=C/c1cc2cccc(O)c2nc1Cl [QN 11, (Z)-N-tert-Butyl-1-(2-chloro-8-hydroxyquinolin-3-yl)methanimine oxide]",IC50,hBChE,12.4 ± 0.7 µM
"CC(C)(C)/[N+]([O-])=C/c1ccc2cccc(O)c2n1 [QN 18, (Z)-N-tert-Butyl-1-(8-hydroxyquinolin-2-yl)methanimine oxide]",EC50,[3],119 ± 1.2 µM
same,Inhibition of Aβ1–42 aggregation,Aβ1–42,"n.i. ^e (n.i., no inhibition <20%)"
same,"Papp at 4 h, 100 μmol/L",BBB-PAMPA permeability,437 ± 41 nm/s
same,BBB–PAMPA permeability −LogPe,BBB-PAMPA permeability,4.4 log [cm/s]
"COc1cccc2cc(/C=[N+](\[O-])C(C)(C)C)c(Cl)nc12 [QN 9, (Z)-N-tert-Butyl-1-(2-chloro-8-methoxyquinolin-3-yl)methanimine oxide]",IC50,hBChE,15.2 ± 1.1 µM
"C#CCN1CCN(CCCOc2cccc3cc(/C=[N+](\[O-])Cc4ccccc4)c(Cl)nc23)CC1 [QN 8, (Z)-N-Benzyl-1-(2-chloro-8-(3-(4-(prop-2-yn-1-yl)piperazin-1-yl)propoxy)quinolin-3-yl)methanimine oxide]",IC50,hMAO-A,14.9 ± 1.2 µM
same,IC50,hMAO-B,13.8 ± 1.8 µM
same,IC50,hBChE,14.8 ± 2.1 µM
"CCN(C)C(=O)Oc1cccc([C@H](C)N(C)C)c1 [rivastigmine, reference compound]",motor effects shortly after administration,mice,caused muscle tremor and transient motor coordination deficits
same,step-through latency in retention trial versus scopolamine-treated control,[4],significant differences
CNC1=Nc2ccc(Cl)cc2C(c2ccccc2)=[N+]([O-])C1 [chlordiazepoxide],Ki,[1]; read-out: eeAChE Ki,50 ± 7 µM
same,Ki,[2]; read-out: eqBChE Ki,0.3 ± 0.04 µM
"C#CCN1CCN(CCCOc2cccc3ccc(C=O)nc23)CC1 [QN 32, 8-(3-(4-(Prop-2-yn-1-yl)piperazin-1-yl)propoxy)quinoline-2-carbaldehyde]",Radical-scavenging DPPH assay EC50,[3],"n.a. ^d (n.a., not active–% DPPH reduced at 100 μmol/L concentration lower than 10%)"
same,Inhibition of Aβ1–42 aggregation,Aβ1–42,40.7 ± 2.4%∗
same,"Papp at 4 h, 100 μmol/L",BBB-PAMPA permeability,503 ± 28 nm/s
same,BBB–PAMPA permeability −LogPe,BBB-PAMPA permeability,4.3 log [cm/s]
"[O-]/[N+](=C\c1cc2cccc(OCCCN3CCCCC3)c2nc1Cl)Cc1ccccc1 [QN 6, (Z)-N-Benzyl-1-(2-chloro-8-(3-(piperidin-1-yl)propoxy)quinolin-3-yl)methanimine oxide]",IC50,hMAO-A,106 ± 3.7 µM
same,IC50,hMAO-B,50.4 ± 4.5 µM
same,IC50,hAChE,68.6 ± 13.6 µM
same,IC50,hBChE,10.2 ± 1.1 µM
"Oc1ccc(/C=C/c2cc(O)cc(O)c2)cc1 [resveratrol, reference compound]",EC50,[3],50.1 µM
"C#CCN1CCN(CCCOc2cccc3ccc(/C=[N+](\[O-])C(C)(C)C)nc23)CC1 [QN 15, (Z)-N-tert-Butyl-1-(8-(3-(4-(prop-2-yn-1-yl)piperazin-1-yl)propoxy)quinolin-2-yl)methanimine oxide]",Radical-scavenging DPPH assay EC50,[3],"n.a. ^d (n.a., not active–% DPPH reduced at 100 μmol/L concentration lower than 10%)"
same,Inhibition of Aβ1–42 aggregation,Aβ1–42,"n.i. ^e (n.i., no inhibition <20%)"
same,"Papp at 4 h, 100 μmol/L",BBB-PAMPA permeability,722 ± 27 nm/s
same,BBB–PAMPA permeability −LogPe,BBB-PAMPA permeability,4.1 log [cm/s]
"C#CCN1CCN(CCCOc2nc3c(OC)cccc3cc2/C=[N+](\[O-])C(C)(C)C)CC1 [QN 3, (Z)-N-tert-Butyl-1-(8-methoxy-2-(3-(4-(prop-2-yn-1-yl)piperazin-1-yl)propoxy)quinolin-3-yl)methanimine oxide]",IC50,hBChE,2.06 ± 0.04 µM
"COc1cccc2cc(/C=[N+](\[O-])Cc3ccccc3)c(OCCCN3CCCCC3)nc12 [QN 2, (Z)-N-Benzyl-1-(8-methoxy-2-(3-(piperidin-1-yl)propoxy)quinolin-3-yl)methanimine oxide]",IC50,hAChE,39.6 ± 6.1 µM
same,IC50,hBChE,0.415 ± 0.0167 µM
"O=Cc1ccc2cccc(O)c2n1 [QN 30, 8-hydroxyquinoline-2-carbaldehyde]",IC50,hMAO-B,43.9 ± 3.4 µM
"C#CCN1CCN(CCCOc2cccc3cc(/C=[N+](\[O-])C(C)(C)C)c(Cl)nc23)CC1 [QN 7, (Z)-N-tert-Butyl-1-(2-chloro-8-(3-(4-(prop-2-yn-1-yl)piperazin-1-yl)propoxy)quinolin-3-yl)methanimine oxide]",IC50,hBChE,13.3 ± 0.9 µM
"C#CCN1CCN(CCCOc2nc3c(OC)cccc3cc2/C=[N+](\[O-])Cc2ccccc2)CC1 [QN 4, (Z)-N-Benzyl-1-(8-methoxy-2-(3-(4-(prop-2-yn-1-yl)piperazin-1-yl)propoxy)quinolin-3-yl)methanimine oxide]",IC50,hBChE,3.06 ± 0.29 µM
"CC(C)(C)/[N+]([O-])=C/c1cc2cccc(OCCCN3CCCCC3)c2nc1Cl [QN 5, (Z)-N-tert-Butyl-1-(2-chloro-8-(3-(piperidin-1-yl)propoxy)quinolin-3-yl)methanimine oxide]",IC50,hMAO-A,113 ± 13.2 µM
same,IC50,hAChE,44.7 ± 4.8 µM
same,IC50,hBChE,5.57 ± 0.46 µM
"COc1cccc2cc(/C=[N+](\[O-])C(C)(C)C)c(OCCCN3CCCCC3)nc12 [QN 1, (Z)-N-tert-Butyl-1-(8-methoxy-2-(3-(piperidin-1-yl)propoxy)quinolin-3-yl)methanimine oxide]",IC50,hBChE,0.707 ± 0.0454 µM
